Holding throughout (type): cell-based
Common to all, as to settings: lowest concentration inhibiting 95% of bacterial growth; in the presence of β lactamase inhibitor (BLi, Relebactam); 22 hours, 35±2° C., OD600

Assay [1] relates to Pseudomonas aeruginosa expressing AmpC (CL5701). Here is the method:
(§1) Antibiotic Activity: Determination of Growth Inhibitory Concentration
(§2) The concentrations of compounds required to inhibit the growth of various strains of bacteria were determined in an assay that assessed bacterial growth by measuring optical density at 600 nm (OD600). The bacterial strains tested included the clinical strains Escherichia coli expressing NDM-1 (CLB30016), Klebsiella pneumoniae expressing KPC-1 (CL6569), Acinetobacter baumannii expressing TEM-1, AmpC, and Oxa-24/40 (CL6188) and Pseudomonas aeruginosa expressing AmpC (CL5701). All compounds were tested in the presence of a β lactamase inhibitor (BLi, Relebactam) in 384-well microplates. The clinical strains were stored as frozen single use stocks, thawed and diluted into 1.1× cation-adjusted Mueller-Hinton II broth to achieve approximately 2×10^5 CFU/mL. Test compounds were dissolved in DMSO and diluted 1:50 in the assay, resulting in a final concentration range of 100 μM to 0.098 μM. On the day of the assay, 1 μL of test compound was added to the plate followed by 4 μL of 50 μg/mL BLi in MOPS buffer and 45 μL of diluted bacteria. Plates were centrifuged at 1000 rpm for 30 seconds, shaken at approximately 800 rpm for 1 minute, and incubated at 35±2° C. for 22 hours. The concentration of BLi used in the assay was […]. At the end of the incubation, absorbance at 600 nm was determined using a spectrophotometer. Inhibition was quantitated by identifying the lowest concentration of test compound that was required to inhibit 95% of the growth of the bacteria. The results for Examples 1-39 are reported in Table I, expressed as the concentration of compound that inhibited 95% of bacterial growth (Minimum Inhibitory Threshold Concentration; MITC95).

The test system of assay [2] is Klebsiella pneumoniae expressing KPC-1 (CL6569). Here is the method: as §1, §2
The subject of assay [3] is Escherichia coli expressing NDM-1 (CLB30016). As to the method:
as §1, §2

Assay [4] relates to Acinetobacter baumannii expressing TEM-1, AmpC, and Oxa-24/40 (CL6188). As to the method: as §1, §2

Where a name gives a salt, the structure may show the parent alone.

On to `C[n+]1cc(-c2ccc3c(c2)CC[C@H]([C@](C)(O/N=C(\C(=O)N[C@@H]2C(=O)N(OS(=O)(=O)[O-])C2(C)C)c2csc(N)n2)C(=O)O)O3)cnc1NC[C@H](O)CN.O=CO` [Example 17, (S)-3-((Z)-2-(2-aminothiazol-4-yl)-2-(((S)-1-((R)-6-(2-(((R)-3-ammonio-2-hydroxy-propyl)amino)-1-methyl-pyrimidin-1-ium-5-yl)chroman-2-yl)-1-carboxy-ethoxy)imino)acetamido)-2,2-dimethyl-4-oxoazetidin-1-yl sulfate formate], for which the “PA_CL5701 MITC95” value in assay [1] is 6.25 µM. Also, the “KP_CL6569 MITC95” value in assay [2] is 0.3906 µM. The “EC_CLB30016 MITC95” value in assay [3] worked out at 6.25 µM. Moreover, the “AB_CL6188 MITC95” value in assay [4] amounted to 12.5 µM.

For `CC1(C)[C@H](NC(=O)/C(=N\O[C@](C)(C(=O)O)[C@H]2CCc3cc(-c4ccc(NCCN)[n+](CC5CNC5)c4)ccc3O2)c2csc(N)n2)C(=O)N1OS(=O)(=O)[O-].O=CO` [Example 14, (S)-3-((Z)-2-(((S)-1-((R)-6-(6-((2-aminoethyl)amino)-1-(azetidin-1-ium-3-ylmethyl)pyridin-1-ium-3-yl)chroman-2-yl)-1-carboxyethoxy)imino)-2-(2-aminothiazol-4-yl)acetamido)-2,2-dimethyl-4-oxoazetidin-1-yl Sulfate Formate], in assay [1], the “PA_CL5701 MITC95” value turned out to be 12.5 µM. Besides, in assay [2], the “KP_CL6569 MITC95” value was found to be 0.7813 µM. Further, the “EC_CLB30016 MITC95” value in assay [3] turned out to be 12.5 µM. In addition, in assay [4], the “AB_CL6188 MITC95” value worked out at 50 µM.

As for `CC1(C)[C@H](NC(=O)/C(=N\O[C@](C)(C(=O)O)[C@H]2CCc3cc(-c4cnc(NC[C@H](O)CN)[n+](CC5CNC5)c4)ccc3O2)c2csc(N)n2)C(=O)N1OS(=O)(=O)[O-].O=CO` [Example 19, (S)-3-((Z)-2-(((S)-1-((R)-6-(2-(((R)-3-amino-2-hydroxy-propyl)amino)-1-(azetidin-1-ium-3-ylmethyl)pyrimidin-1-ium-5-yl)chroman-2-yl)-1-carboxyethoxy)imino)-2-(2-aminothiazol-4-yl)acetamido)-2,2-dimethyl-4-oxoazetidin-1-yl sulfate formate], the “PA_CL5701 MITC95” value in assay [1] was 12.5 µM. The “KP_CL6569 MITC95” value in assay [2] came to 0.7813 µM. The “EC_CLB30016 MITC95” value in assay [3] was 6.25 µM. In addition, in assay [4], the “AB_CL6188 MITC95” value was determined as 12.5 µM.

As for `CC1(C)[C@H](NC(=O)/C(=N\O[C@](C)(C(=O)O)[C@H]2CCc3cc(-c4ccc(NCCCN)[n+](CCCN)c4)ccc3O2)c2csc(N)n2)C(=O)N1OS(=O)(=O)[O-].O=CO` [Example 21, (S)-3-((Z)-2-(((S)-1-((R)-6-(1-(3-aminopropyl)-6-((3-ammoniopropyl)amino)pyridin-1-ium-3-yl)chroman-2-yl)-1-carboxyethoxy)imino)-2-(2-aminothiazol-4-yl)acetamido)-2,2-dimethyl-4-oxoazetidin-1-yl sulfate formate], in assay [1], the “PA_CL5701 MITC95” value was found to be 12.5 µM. In addition, the “KP_CL6569 MITC95” value in assay [2] turned out to be 0.3906 µM. The “EC_CLB30016 MITC95” value in assay [3] was 6.25 µM. For the same compound, in assay [4], the “AB_CL6188 MITC95” value was 3.125 µM.

For the compound `CC1(C)[C@H](NC(=O)/C(=N\O[C@](C)(C(=O)O)[C@H]2CCc3cc(C4CN=C(NCCN)NC4)ccc3O2)c2csc(N)n2)C(=O)N1OS(=O)(=O)O.O=CO` (stereo partly drawn) [Example 30, 2-((2-aminoethyl)amino)-5-((R)-2-((S)-1-((((Z)-1-(2-aminothiazol-4-yl)-2-(((S)-2,2-dimethyl-4-oxo-1-(sulfooxy)azetidin-3-yl)amino)-2-oxoethylidene)amino)oxy)-1-carboxyethyl)chroman-6-yl)-3,4,5,6-tetrahydropyrimidin-1-ium formate], the “PA_CL5701 MITC95” value in assay [1] is 6.25 µM. In addition, in assay [2], the “KP_CL6569 MITC95” value is 3.125 µM. In addition, the “EC_CLB30016 MITC95” value in assay [3] was determined as 25 µM. The “AB_CL6188 MITC95” value in assay [4] turned out to be 25 µM.

`C[n+]1cc(-c2ccc3c(c2)CC[C@@H](CO/N=C(\C(=O)N[C@@H]2C(=O)N(OS(=O)(=O)[O-])C2(C)C)c2csc(N)n2)O3)cn1CCCN` [Example 10, (S)-3-((Z)-2-((((S)-6-(1-(3-aminopropyl)-2-methyl-1H-pyrazol-2-ium-4-yl)chroman-2-yl)methoxy)imino)-2-(2-aminothiazol-4-yl)acetamido)-2,2-dimethyl-4-oxoazetidin-1-yl sulfate]: the “PA_CL5701 MITC95” value in assay [1] worked out at 6.25 µM. Further, the “KP_CL6569 MITC95” value in assay [2] was found to be 0.3906 µM. Further, the “EC_CLB30016 MITC95” value in assay [3] came to 6.25 µM. The “AB_CL6188 MITC95” value in assay [4] came out at 12.5 µM.

Regarding `CC1(C)[C@H](NC(=O)/C(=N\O[C@](C)(C(=O)O)[C@H]2CCc3cc(-c4ccc5[n+](c4)CC(CN)CN5CCN)ccc3O2)c2csc(N)n2)C(=O)N1OS(=O)(=O)[O-].O=CO` (some centres unmarked) [Example 39], the “PA_CL5701 MITC95” value in assay [1] was found to be 3.125 µM. In assay [2], the “KP_CL6569 MITC95” value is 0.3255 µM. Besides, the “EC_CLB30016 MITC95” value in assay [3] was 12.5 µM. In assay [4], the “AB_CL6188 MITC95” value was determined as 7.292 µM.

Consider `C[n+]1cc(-c2ccc3c(c2)OCC(CO/N=C(\C(=O)N[C@@H]2C(=O)N(OS(=O)(=O)[O-])C2(C)C)c2csc(N)n2)C3)ccc1NCCN.O=C(O)C(F)(F)F` (single isomer, unassigned) [Example 37A], for which the “PA_CL5701 MITC95” value in assay [1] was 3.13 µM. Moreover, the “KP_CL6569 MITC95” value in assay [2] amounted to 0.78 µM. The “EC_CLB30016 MITC95” value in assay [3] was 12.5 µM. In addition, the “AB_CL6188 MITC95” value in assay [4] is 12.5 µM.

`C[n+]1cc(-c2ccc3c(c2)CC[C@H]([C@](C)(O/N=C(\C(=O)N[C@@H]2C(=O)N(OS(=O)(=O)[O-])C2(C)C)c2csc(N)n2)C(=O)O)O3)ccc1CC(CN)CN.O=CO` [Example 16, (3S)-3-((Z)-2-(((1S)-1-((2R)-6-(6-(3-amino-2-(ammonio-methyl)propyl)-1-methylpyridin-1-ium-3-yl)chroman-2-yl)-1-carboxyethoxy)imino)-2-(2-aminothiazol-4-yl)acetamido)-2,2-dimethyl-4-oxoazetidin-1-yl sulfate formate]: the “PA_CL5701 MITC95” value in assay [1] was found to be 3.125 µM. Further, the “KP_CL6569 MITC95” value in assay [2] stood at 0.3906 µM. Moreover, the “EC_CLB30016 MITC95” value in assay [3] was 6.25 µM. Also, the “AB_CL6188 MITC95” value in assay [4] was determined as 3.125 µM.

`CC1(C)[C@H](NC(=O)/C(=N\O[C@](C)(C(=O)O)[C@H]2CCc3cc(C4=CN=C(NCCCN)NC4)ccc3O2)c2csc(N)n2)C(=O)N1OS(=O)(=O)O` [Example 32, 2-((3-aminopropyl)amino)-5-((R)-2-((S)-1-((((Z)-1-(2-aminothiazol-4-yl)-2-(((S)-2,2-dimethyl-4-oxo-1-(sulfooxy)azetidin-3-yl)amino)-2-oxoethylidene)amino)oxy)-1-carboxyethyl)chroman-6-yl)-3,4-dihydropyrimidin-1-ium Formate]: the “PA_CL5701 MITC95” value in assay [1] worked out at 3.125 µM. The “KP_CL6569 MITC95” value in assay [2] is 0.1953 µM. In addition, the “EC_CLB30016 MITC95” value in assay [3] came out at 3.125 µM. In addition, the “AB_CL6188 MITC95” value in assay [4] worked out at 3.125 µM.

In the case of `CC1(C)[C@H](NC(=O)/C(=N\O[C@](C)(C(=O)O)[C@H]2CCc3cc(C4CNC(NCCN)=N4)ccc3O2)c2csc(N)n2)C(=O)N1OS(=O)(=O)O` (single isomer, unassigned) [Example 25], in assay [1], the “PA_CL5701 MITC95” value was determined as 3.125 µM. In assay [2], the “KP_CL6569 MITC95” value is 0.3906 µM. In addition, the “EC_CLB30016 MITC95” value in assay [3] was found to be 6.25 µM. Also, the “AB_CL6188 MITC95” value in assay [4] came to 50 µM.

For the origin of these results see patent US11433055B2, “Chromane monobactam compounds for the treatment of bacterial infections” (priority 2017, dated 2022).
